# US8937187B2, “Method for depigmenting keratin materials using resorcinol derivatives” (L'Oreal, priority 2010, dated 2015)
# Legend:
# [1] = test system: co-culture of keratinocytes and melanocytes; assay: Inhibitory activity on melanin synthesis (constitutive melanogenesis), ratio of thiouracil to leucine incorporation; format: cell-based; conditions: for IC50: thiouracil/leucine incorporation ratio relative to 100% of the control, read-out: IC50 (concentration for which 50% of the synthesis of melanin is inhibited)
# Description: The modulatory effect of compound 1 on melanogenesis was measured by the method described in patent FR-A-2 734 825 and also in the article by R. Schmidt, P. Krien and M. Régnier, Anal. Biochem., 235(2), 113-18, 1996. This test is carried out on a co-culture of keratinocytes and melanocytes.
# For the compound tested, the following parameters were ascertained: • the cytotoxicity, by estimation of the incorporation of leucine, • the inhibitory activity on melanin synthesis, by estimating the ratio of incorporation of thiouracil to the incorporation of leucine, relative to 100% of the control (the control corresponds to the test carried out without compound tested). The IC50 values (concentration for which 50% of the synthesis of melanin is inhibited) were ascertained.
# The test was also carried out with arbutin and kojic acid, which are known depigmenting compounds.
# [2] = test system: co-culture of keratinocytes and melanocytes; assay: Cytotoxicity by estimation of the incorporation of leucine; format: cell-based
# Description: The modulatory effect of compound 1 on melanogenesis was measured by the method described in patent FR-[…]. Schmidt, P. […], Anal. Biochem., 235(2), 113-18, 1996. This test is carried out on a co-culture of keratinocytes and melanocytes. […] The test was also carried out with arbutin and kojic acid, which are known depigmenting compounds.
compound,measurement,setting,value
O=C1CC(=O)C(Cc2ccc(O)cc2O)C1 (centres unmarked),IC50,[1],52 µM
same,Cytotoxicity on co-culture,[2],Non-cytotoxic
"OC[C@H]1O[C@@H](Oc2ccc(O)cc2)[C@H](O)[C@@H](O)[C@@H]1O [Arbutin, reference compound]",IC50,[1],> 500 µM
same,Cytotoxicity on co-culture,[2],Non-cytotoxic
"O=C1CC(Cc2ccc(O)cc2O)C(=O)N1 (centres unmarked) [Compound 1, 3-(2,4-dihydroxybenzyl)pyrrolidine-2,5-dione]",efficacy in inhibiting melanogenesis compared with arbutin and kojic acid,[1],more effective than arbutin and kojic acid
"CCCCN1C(=O)CC(Cc2ccc(O)cc2O)C1=O (centres unmarked) [Compound 7, 3-(2,4-dihydroxybenzyl)-1-butylpyrrolidine-2,5-dione]",efficacy in inhibiting melanogenesis compared with arbutin and kojic acid,[1],more effective than arbutin and kojic acid
same,melting point,,122 to 123 °C
"O=C1CC(Cc2ccc(O)cc2O)C(=O)N1CCO (centres unmarked) [Compound 12, 3-(2,4-dihydroxybenzyl)-1-(2-hydroxyethyl)pyrrolidine-2,5-dione]",efficacy in inhibiting melanogenesis compared with arbutin and kojic acid,[1],more effective than arbutin and kojic acid
"CCOC(=O)CN1C(=O)CC(Cc2ccc(O)cc2O)C1=O (centres unmarked) [Compound 32, ethyl [3-(2,4-dihydroxybenzyl)-2,5-dioxopyrrolidin-1-yl]acetate]",efficacy in inhibiting melanogenesis compared with arbutin and kojic acid,[1],more effective than arbutin and kojic acid
"O=c1cc(CO)occ1O [Kojic acid, reference compound]",IC50,[1],> 500 µM
same,Cytotoxicity on co-culture,[2],100 µM
CCCCN1C(=O)CC(Cc2ccc(O)cc2O)C1=O (centres unmarked) [drawing 126],IC50,[1],8.3 µM
same,Cytotoxicity on co-culture,[2],Non-cytotoxic
CCOC(=O)CN1C(=O)CC(Cc2ccc(O)cc2O)C1=O (centres unmarked) [drawing 128],IC50,[1],9.2 µM
same,Cytotoxicity on co-culture,[2],Non-cytotoxic
O=C1CC(Cc2ccc(O)cc2O)C(=O)N1CCO (centres unmarked) [drawing 129],IC50,[1],14.9 µM
same,Cytotoxicity on co-culture,[2],Non-cytotoxic
